In US20110253135A1, “METAL COORDINATION COMPLEXES OF VOLATILE DRUGS” (ALEXZA PHARMACEUTICALS, INC., priority 2008, published 2011):
Like-named read-outs stand apart in the source and are kept apart here.

Experiments:
[1] = 25° C.; cited from earlier work
[2] = Drug aerosol from percussively ignited heat package: purity and recovered yield by HPLC; type: physicochemical

## CN1CCCC1c1cccnc1 (stereo not shown) [Nicotine, nicotine]
[1]
  vapor pressure: 0.0425 mmHg

## Cc1nnc2n1-c1ccc(Cl)cc1C(c1ccccc1)=NC2 [alprazolam]
[2]
  purity of the resultant aerosol: 96.8%
  recovered yield of aerosol: 100%

## CC(C)C(=O)OCC(=O)[C@@]12O[C@H](C3CCCCC3)O[C@@H]1C[C@H]1[C@@H]3CCC4=CC(=O)C=C[C@]4(C)[C@H]3[C@@H](O)C[C@@]12C [ciclesonide]
[2]; percussively ignited heat package, greater than 800° C., air flow 20 L/min, film 1.58 μm alprazolam, 6.33 μm pramipexole, 2.53 μm ciclesonide
  purity of the resultant aerosol: 85.6%
